Test results published in patent US6747148B2, “Sulfonamide derivatives as inhibitors of bone resorption and as inhibitors of cell adhesion” (Hoechst Marion Roussel Deutschland GmbH, priority 1998, dated 2004).

Target: T1, vitronectin receptor αvβ3 (Homo sapiens, UniProt P05106+P06756)
T1 construct: expressed in transfected cells
Test: Inhibition of binding of 293 cells to human vitronectin (Vn/293 cell test)
Type: cell-based
Settings: 293 cells cotransfected with αv and β3 subunits; plate coated with human vitronectin; 90 minutes at 37° C.
From the text: Test for the Measurement of the Inhibition of Binding of 293 Cells to Human Vitronectin (Vn/293 Cell Test)
1. Purification of Human Vitronectin
Human vitronectin is isolated from human plasma and purified by affinity chromatography according to the method of Yatohyo et al., Cell Structure and Function […]: 281-292 (1988).
293 cells, a human embryonic kidney cell line, which are cotransfected with DNA sequences for the αv and β3 subunits of the vitronectin receptor αvβ3, are selected for a high rate of expression (>500,000 αvβ3 receptors/cell) according to the FACS method. The selected cells are cultured and sorted again by means of FACS in order to obtain a stable cell line (15 D) with expression rates >1,000,000 copies of αvβ3 per cell.
A Linbro 96-well tissue culture plate with a flat bottom is coated overnight at 4° C. with human vitronectin (0.01 mg/ml, 0.05 ml/well) in phosphate-buffered saline solution (PBS) and then blocked with 0.5% strength BSA (bovine serum albumin). Solutions of the test substances from 10^−10 mol/l to 2×10^−3 mol/l in glucose-containing DMEM medium are prepared and 0.05 ml/well of the solution are added to the plate in each case. The cells which express high levels of αvβ3 (for example 15 D) are suspended in glucose-containing DMEM medium and the suspension is adjusted to a content of 25,000 cells/0.05 ml of medium. 0.05 ml of this cell suspension is added to each well and the plate is incubated at 37° C. for 90 minutes. The plate is washed three times with warm PBS in order to remove unbound cells. The bound cells are lyzed in citrate buffer (25 mM, pH 5.0) which contains 0.25% Triton X-100. The hexoseamidase substrate p-nitrophenyl-N-acetyl-β-D-glucosaminide is then added and the plate is incubated at 37° C. for 90 minutes. The reaction is stopped with a glycine (50 mM)/EDTA (5 mM) buffer (ph 10.4), and the absorption of each well is measured at 405-650 nm. The data are analyzed according to standard processes.

T1 sequence (P06756 31-889 limits assumed): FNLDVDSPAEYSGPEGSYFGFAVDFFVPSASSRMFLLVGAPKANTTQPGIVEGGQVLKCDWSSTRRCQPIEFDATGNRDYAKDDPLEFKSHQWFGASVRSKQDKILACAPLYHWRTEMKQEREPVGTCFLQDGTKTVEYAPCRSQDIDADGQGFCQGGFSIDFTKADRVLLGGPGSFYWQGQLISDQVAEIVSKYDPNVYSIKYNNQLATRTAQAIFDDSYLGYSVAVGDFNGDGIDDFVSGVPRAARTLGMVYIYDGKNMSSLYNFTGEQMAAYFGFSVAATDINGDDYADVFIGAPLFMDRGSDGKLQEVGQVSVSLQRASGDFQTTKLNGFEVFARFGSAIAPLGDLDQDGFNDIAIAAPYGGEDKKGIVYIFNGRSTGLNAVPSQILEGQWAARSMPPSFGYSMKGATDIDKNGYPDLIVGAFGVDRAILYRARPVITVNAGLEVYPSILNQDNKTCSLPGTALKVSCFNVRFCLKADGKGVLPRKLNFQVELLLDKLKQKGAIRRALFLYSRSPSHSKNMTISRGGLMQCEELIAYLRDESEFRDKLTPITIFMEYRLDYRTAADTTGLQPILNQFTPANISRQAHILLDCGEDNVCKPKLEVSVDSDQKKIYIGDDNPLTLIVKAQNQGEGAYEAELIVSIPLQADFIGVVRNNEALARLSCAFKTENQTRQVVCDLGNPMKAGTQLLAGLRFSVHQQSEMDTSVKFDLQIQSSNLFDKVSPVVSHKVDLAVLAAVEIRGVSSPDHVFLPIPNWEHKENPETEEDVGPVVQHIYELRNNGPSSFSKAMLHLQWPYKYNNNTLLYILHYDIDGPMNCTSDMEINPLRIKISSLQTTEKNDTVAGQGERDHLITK
T1 sequence (P06756 891-1048 partner limits assumed): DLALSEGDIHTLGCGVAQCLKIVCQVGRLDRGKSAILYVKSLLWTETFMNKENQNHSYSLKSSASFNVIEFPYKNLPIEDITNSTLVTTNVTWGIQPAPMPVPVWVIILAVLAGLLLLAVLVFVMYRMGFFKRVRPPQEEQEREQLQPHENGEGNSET
T1 sequence (P05106 27-788): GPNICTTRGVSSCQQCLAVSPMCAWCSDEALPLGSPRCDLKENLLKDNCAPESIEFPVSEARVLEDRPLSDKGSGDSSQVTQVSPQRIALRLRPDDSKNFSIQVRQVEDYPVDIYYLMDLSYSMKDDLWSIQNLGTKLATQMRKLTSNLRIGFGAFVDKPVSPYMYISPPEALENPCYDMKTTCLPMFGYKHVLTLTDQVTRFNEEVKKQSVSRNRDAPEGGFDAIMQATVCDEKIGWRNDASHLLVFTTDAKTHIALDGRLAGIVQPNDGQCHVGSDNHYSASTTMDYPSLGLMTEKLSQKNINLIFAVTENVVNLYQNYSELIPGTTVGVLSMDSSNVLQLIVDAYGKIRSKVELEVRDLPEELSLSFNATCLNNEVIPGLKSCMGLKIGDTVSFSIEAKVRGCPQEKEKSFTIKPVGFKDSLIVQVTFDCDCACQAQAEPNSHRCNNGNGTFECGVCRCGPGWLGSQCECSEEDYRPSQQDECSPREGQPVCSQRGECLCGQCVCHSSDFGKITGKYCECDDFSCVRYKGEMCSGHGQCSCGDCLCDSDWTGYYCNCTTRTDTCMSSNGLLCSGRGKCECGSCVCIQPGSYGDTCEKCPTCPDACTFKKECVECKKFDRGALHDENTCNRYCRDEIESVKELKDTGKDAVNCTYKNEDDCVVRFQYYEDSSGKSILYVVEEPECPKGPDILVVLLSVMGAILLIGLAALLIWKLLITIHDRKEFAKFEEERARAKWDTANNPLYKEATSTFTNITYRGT

SMILES	IC50 [nM]
CC1(C)C2CCC1(CS(=O)(=O)N[C@@H](CNC(=O)c1ccc(CCC(=O)NC3=NCCCN3)cc1)C(=O)O)C(=O)C2 (stereo partly drawn) [Example 12, (2S)-2-(7,7-Dimethyl-2-oxo-bicyclo[2.2.1]hept-1-ylmethanesulfonylamino)-3-(4-(2-(1,4,5,6-tetrahydropyrimidin-2-ylcarbamoyl)-ethyl)-benzoylamino)-propionic acid]	27
CCCCS(=O)(=O)N[C@@H](CNC(=O)c1ccc(CCC(=O)NC2=NCCCN2)cc1)C(=O)O [Example 23, (2S)-2-(Butane-1-sulfonylamino)-3-(4-(2-(1,4,5,6-tetrahydropyrimidin-2-ylcarbamoyl)-ethyl)-benzoylamino)-propionic acid]	30
O=C(CCc1ccc(C(=O)NC[C@H](NS(=O)(=O)c2ccc(-c3ccccc3)cc2)C(=O)O)cc1)NC1=NCCCN1 [Example 19, (2S)-2-(Biphenyl-4-sulfonylamino)-3-(4-(2-(1,4,5,6-tetrahydropyrimidin-2-ylcarbamoyl)-ethyl)-benzoylamino)-propionic acid]	38
O=C(CCc1ccc(C(=O)NC[C@H](NS(=O)(=O)/C=C/c2ccccc2)C(=O)O)cc1)NC1=NCCCN1 [Example 7, (2S)-2-(2-Phenyl-ethenesulfonylamino)-3-(4-(2-(1,4,5,6-tetrahydropyrimidin-2-ylcarbamoyl)-ethyl)-benzoylamino)-propionic acid]	28
Cc1cc(C)c(S(=O)(=O)N[C@@H](CNC(=O)c2ccc(CCC(=O)NC3=NCCCN3)cc2)C(=O)O)c(C)c1 [Example 21, (2S)-3-(4-(2-(1,4,5,6-Tetrahydropyrimidin-2-ylcarbamoyl)-ethyl)-benzoylamino)-2-(2,4,6-trimethyl-benzenesulfonylamino)-propionic acid]	21
CS(=O)(=O)N[C@@H](CNC(=O)c1ccc(CCC(=O)NC2=NCCCN2)cc1)C(=O)O [Example 24, (2S)-2-Methanesulfonylamino-3-(4-(2-(1,4,5,6-tetrahydropyrimidin-2-ylcarbamoyl)-ethyl)-benzoylamino)-propionic acid]	100
CCCS(=O)(=O)N[C@@H](CNC(=O)c1ccc(CCC(=O)NC2=NCCCN2)cc1)C(=O)O [Example 6, (2S)-2-(Propane-1-sulfonylamino)-3-(4-(2-(1,4,5,6-tetrahydropyrimidin-2-ylcarbamoyl)-ethyl)-benzoylamino)-propionic acid]	32
CCCCOc1ccc(S(=O)(=O)N[C@@H](CNC(=O)c2ccc(CCC(=O)NC3=NCCCN3)cc2)C(=O)O)cc1 [Example 10, (2S)-2-(4-Butoxy-benzenesulfonylamino)-3-(4-(2-(1,4,5,6-tetrahydropyrimidin-2-ylcarbamoyl)-ethyl)-benzoylamino)-propionic acid]	29
CC(C)CS(=O)(=O)N[C@@H](CNC(=O)c1ccc(CCC(=O)NC2=NCCCN2)cc1)C(=O)O [Example 9, (2S)-2-(2-Methyl-propane-1-sulfonylamino)-3-(4-(2-(1,4,5,6-tetrahydropyrimidin-2-ylcarbamoyl)-ethyl)-benzoylamino)-propionic acid]	69

Continued, values first:

IC50 [nM]	SMILES
27	CC(=O)Nc1ccc(S(=O)(=O)N[C@@H](CNC(=O)c2ccc(CCC(=O)NC3=NCCCN3)cc2)C(=O)O)cc1 [Example 3, (2S)-2-(4-Acetylamino-benzenesulfonylamino)-3-(4-(2-(1,4,5,6-tetrahydropyrimidin-2-ylcarbamoyl)-ethyl)-benzoylamino)-propionic acid]
24	N#Cc1ccccc1S(=O)(=O)N[C@@H](CNC(=O)c1ccc(CCC(=O)NC2=NCCCN2)cc1)C(=O)O [Example 11, (2S)-2-(2-Cyano-benzenesulfonylamino)-3-(4-(2-(1,4,5,6-tetrahydropyrimidin-2-ylcarbamoyl)-ethyl)-benzoylamino)-propionic acid]
14	O=C(CCc1ccc(C(=O)NC[C@H](NS(=O)(=O)c2cccs2)C(=O)O)cc1)NC1=NCCCN1 [Example 18, (2S)-3-(4-(2-(1,4,5,6-Tetrahydropyrimidin-2-ylcarbamoyl)-ethyl)-benzoylamino)-2-(thiophene-2-sulfonylamino)-propionic acid]
18	CC(C)(C)c1ccc(S(=O)(=O)N[C@@H](CNC(=O)c2ccc(CCC(=O)NC3=NCCCN3)cc2)C(=O)O)cc1 [Example 5, (2S)-2-(4-tert-Butyl-benzenesulfonylamino)-3-(4-(2-(1,4,5,6-tetrahydropyrimidin-2-ylcarbamoyl)-ethyl)-benzoylamino)-propionic acid]
6	O=C(CCc1ccc(C(=O)NC[C@H](NS(=O)(=O)c2cccc3ccccc23)C(=O)O)cc1)NC1=NCCCN1 [Example 1, (2S)-2-(Naphthalene-1-sulfonylamino)-3-(4-(2-(1,4,5,6-tetrahydropyrimidin-2-ylcarbamoyl)-ethyl)-benzoylamino)-propionic acid]
6	O=C(CCc1ccc(C(=O)NC[C@H](NS(=O)(=O)c2cccc(C(F)(F)F)c2)C(=O)O)cc1)NC1=NCCCN1 [Example 15, (2S)-3-(4-(2-(1,4,5,6-Tetrahydropyrimidin-2-ylcarbamoyl)-ethyl)-benzoylamino)-2-(3-trifluoromethyl-benzenesulfonylamino)-propionic acid]
9	O=C(CCc1ccc(C(=O)NC[C@H](NS(=O)(=O)c2ccccc2)C(=O)O)cc1)NC1=NCCCN1 [Example 17, (2S)-2-Benzenesulfonylamino-3-(4-(2-(1,4,5,6-tetrahydropyrimidin-2-ylcarbamoyl)-ethyl)-benzoylamino)-propionic acid]
10	O=C(CCc1ccc(C(=O)NC[C@H](NS(=O)(=O)c2cccc(Cl)c2)C(=O)O)cc1)NC1=NCCCN1 [Example 14, (2S)-2-(3-Chloro-benzenesulfonylamino)-3-(4-(2-(1,4,5,6-tetrahydropyrimidin-2-ylcarbamoyl)-ethyl)-benzoylamino)-propionic acid]
52	O=C(CCc1ccc(C(=O)NC[C@H](NS(=O)(=O)c2cccc3cccnc23)C(=O)O)cc1)NC1=NCCCN1 [Example 2, (2S)-2-(Quinoline-8-sulfonylamino)-3-(4-(2-(1,4,5,6-tetrahydropyrimidin-2-ylcarbamoyl)-ethyl)-benzoylamino)-propionic acid]
20	CCCc1ccc(S(=O)(=O)N[C@@H](CNC(=O)c2ccc(CCC(=O)NC3=NCCCN3)cc2)C(=O)O)cc1 [Example 8, (2S)-2-(4-Propyl-benzenesulfonylamino)-3-(4-(2-(1,4,5,6-tetrahydropyrimidin-2-ylcarbamoyl)-ethyl)-benzoylamino)-propionic acid]
5	O=C(CCc1ccc(C(=O)NC[C@H](NS(=O)(=O)c2ccc3ccccc3c2)C(=O)O)cc1)NC1=NCCCN1 [Example 20, (2S)-2-(Naphthalene-2-sulfonylamino)-3-(4-(2-(1,4,5,6-tetrahydropyrimidin-2-ylcarbamoyl)-ethyl)-benzoylamino)-propionic acid]
10	O=C(CCc1ccc(C(=O)NC[C@H](NS(=O)(=O)c2ccc(C(F)(F)F)cc2)C(=O)O)cc1)NC1=NCCCN1 [Example 22, (2S)-3-(4-(2-(1,4,5,6-Tetrahydropyrimidin-2-ylcarbamoyl)-ethyl)-benzoylamino)-2-(4-trifluoromethyl-benzenesulfonylamino)-propionic acid]
26	COc1ccc(S(=O)(=O)N[C@@H](CNC(=O)c2ccc(CCC(=O)NC3=NCCCN3)cc2)C(=O)O)cc1 [Example 16, (2S)-2-(4-Methoxy-benzenesulfonylamino)-3-(4-(2-(1,4,5,6-tetrahydropyrimidin-2-ylcarbamoyl)-ethyl)-benzoylamino)-propionic acid]
27	O=C(CCc1ccc(C(=O)NC[C@H](NS(=O)(=O)c2ccc(Cl)cc2)C(=O)O)cc1)NC1=NCCCN1 [Example 13, (2S)-^2-(4-Chloro-benzenesulfonylamino)-3-(4-(2-(1,4,5,6-tetrahydropyrimidin-2-ylcarbamoyl)-ethyl)-benzoylamino)-propionic acid]
